According to patent US20210032257A1, “(E)-1-(4-(DIMETHYLAMINO)BUT-2-ENOYL)PYRROLIDIN-3-YL 4-((3-ISOPROPYL-5-METHYLPYRAZOLO[1,5-A]PYRIMIDIN-7-YL)AMINO)PIPERIDINE-1-CARBOXYLATE FOR INHIBITING CDK7” (Eli Lilly and Company, priority 2017, published 2021):

How the values were obtained:
Assay in all cases: Biomarker study proliferation (CellTiter-Glo)
Format in all cases: cell-based
NIHOVCAR3 = tested on: NIHOVCAR3
Method in brief: (§1)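 7-day growth assay: 5000 cells/well, overnight attachment, 10-pt 1:3 dose series diluted via OPTIMEM + 10% FBS. Staurosporine 5 μM final = max inhibition. Readout CellTiter-Glo luminescence after 15 min RT.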

NCIH1048 = tested on: NCIH1048
Method in brief: as §1

NCIH727 = tested on: NCIH727
Method in brief: as §1

DMS53 = tested on: DMS53
Method in brief: as §1

SKMES1 = tested on: SKMES1
Method in brief: as §1

SNU245 = tested on: SNU245
Method in brief: as §1

CACO2 = tested on: CACO2
Method in brief: as §1

NCIH460 = tested on: NCIH460
Method in brief: as §1

HEPG2 = tested on: HEPG2
Method in brief: as §1

EGL1 = tested on: EGL1
Method in brief: as §1

KYSE180 = tested on: KYSE180
Method in brief: as §1

HGC27 = tested on: HGC27
Method in brief: as §1

SKHEP1 = tested on: SKHEP1
Method in brief: as §1

22RV1 = tested on: 22RV1
Method in brief: as §1

THP1 = tested on: THP1
Method in brief: as §1

A549 = tested on: A549
Method in brief: as §1

DU145 = tested on: DU145
Method in brief: as §1

SAOS2 = tested on: SAOS2
Method in brief: as §1

HS766T = tested on: HS766T
Method in brief: as §1

[1] = 168 h, read-out: Anti-proliferation effect IC50

With `Cc1cc(NC2CCN(C(=O)O[C@H]3CCN(C(=O)/C=C/CN(C)C)C3)CC2)n2ncc(C(C)C)c2n1` [Example 1, [(3S)-1-[(E)-4-(dimethylamino)but-2-enoyl]pyrrolidin-3-yl] 4-[(3-isopropyl-5-methyl-pyrazolo[1,5-a]pyrimidin-7-yl)amino]piperidine-1-carboxylate] the IC50 (NIHOVCAR3; Homo sapiens, OVCAR-3, 168 h, read-out: Anti-proliferation effect IC50) was 40 nM, the “Anti-proliferation effect % Inh.” value (NIHOVCAR3; NIHOVCAR3, OVARY, 7 days) was 96% and the “Anti-proliferation effect Outcome” value (NIHOVCAR3; NIHOVCAR3, OVARY, 7 days) was “Cytotoxic (cytotoxic (IC50<1 μM and % inhibition ≥70%))”. The IC50 (NCIH1048; Homo sapiens, NCI-H1048, 168 h, read-out: Anti-proliferation effect IC50) was 4 nM, the “Anti-proliferation effect % Inh.” value (NCIH1048; NCIH1048, LUNG, 7 days) was 95% and the “Anti-proliferation effect Outcome” value (NCIH1048; NCIH1048, LUNG, 7 days) was “Cytotoxic (cytotoxic (IC50<1 μM and % inhibition ≥70%))”. The IC50 (NCIH727; Homo sapiens, NCI-H727, 168 h, read-out: Anti-proliferation effect IC50) was 117 nM, the “Anti-proliferation effect % Inh.” value (NCIH727; NCIH727, LUNG, 7 days) was 56% and the “Anti-proliferation effect Outcome” value (NCIH727; NCIH727, LUNG, 7 days) was “Cytostatic (cytostatic (IC50<1 μM and % inhibition <70%))”. For the same molecule, the “Anti-proliferation effect % Inh.” value (DMS53; DMS53, LUNG, 7 days) was 66%, the “Anti-proliferation effect Outcome” value (DMS53; DMS53, LUNG, 7 days) was “Cytostatic (cytostatic (IC50<1 μM and % inhibition <70%))” and the IC50 (DMS53; Homo sapiens, DMS-53, 168 h, read-out: Anti-proliferation effect IC50) was 118 nM. The IC50 (SKMES1; Homo sapiens, SK-MES-1, 168 h, read-out: Anti-proliferation effect IC50) was 28 nM, the “Anti-proliferation effect % Inh.” value (SKMES1; SKMES1, LUNG, 7 days) was 80% and the “Anti-proliferation effect Outcome” value (SKMES1; SKMES1, LUNG, 7 days) was “Cytotoxic (cytotoxic (IC50<1 μM and % inhibition ≥70%))”. For the same molecule, the IC50 (SNU245; [1]) was 1090 nM, the “Anti-proliferation effect % Inh.” value (SNU245; SNU245, BILIARY, 7 days) was −5% and the “Anti-proliferation effect Outcome” value (SNU245; SNU245, BILIARY, 7 days) was “Insensitive (insensitive (IC50≥1 μM))”. The “Anti-proliferation effect % Inh.” value (CACO2; CACO2, INTESTINE, 7 days) was 60%, the “Anti-proliferation effect Outcome” value (CACO2; CACO2, INTESTINE, 7 days) was “Cytostatic (cytostatic (IC50<1 μM and % inhibition <70%))” and the IC50 (CACO2; Homo sapiens, Caco-2, 168 h, read-out: Anti-proliferation effect IC50) was 189 nM. The IC50 (NCIH460; Homo sapiens, NCI-H460, 168 h, read-out: Anti-proliferation effect IC50) was 47 nM, the “Anti-proliferation effect % Inh.” value (NCIH460; NCIH460, LUNG, 7 days) was 97% and the “Anti-proliferation effect Outcome” value (NCIH460; NCIH460, LUNG, 7 days) was “Cytotoxic (cytotoxic (IC50<1 μM and % inhibition ≥70%))”. The “Anti-proliferation effect % Inh.” value (HEPG2; HEPG2, LIVER, 7 days) was 78%, the “Anti-proliferation effect Outcome” value (HEPG2; HEPG2, LIVER, 7 days) was “Cytotoxic (cytotoxic (IC50<1 μM and % inhibition ≥70%))” and the IC50 (HEPG2; Homo sapiens, HepG2, 168 h, read-out: Anti-proliferation effect IC50) was 28 nM. The IC50 (EGL1; [1]) was 41 nM, the “Anti-proliferation effect % Inh.” value (EGL1; EGL1, 7 days) was 95% and the “Anti-proliferation effect Outcome” value (EGL1; EGL1, 7 days) was “Cytotoxic (cytotoxic (IC50<1 μM and % inhibition ≥70%))”. The IC50 (KYSE180; Homo sapiens, KYSE-180, 168 h, read-out: Anti-proliferation effect IC50) was 103 nM, the “Anti-proliferation effect % Inh.” value (KYSE180; KYSE180, OESOPHAGUS, 7 days) was 68% and the “Anti-proliferation effect Outcome” value (KYSE180; KYSE180, OESOPHAGUS, 7 days) was “Cytostatic (cytostatic (IC50<1 μM and % inhibition <70%))”. The “Anti-proliferation effect % Inh.” value (HGC27; HGC27, STOMACH, 7 days) was 78%, the “Anti-proliferation effect Outcome” value (HGC27; HGC27, STOMACH, 7 days) was “Cytotoxic (cytotoxic (IC50<1 μM and % inhibition ≥70%))” and the IC50 (HGC27; Homo sapiens, HGC-27, 168 h, read-out: Anti-proliferation effect IC50) was 68 nM. The IC50 (SKHEP1; Homo sapiens, SK-HEP1, 168 h, read-out: Anti-proliferation effect IC50) was 118 nM, the “Anti-proliferation effect % Inh.” value (SKHEP1; SKHEP1, LIVER, 7 days) was 71% and the “Anti-proliferation effect Outcome” value (SKHEP1; SKHEP1, LIVER, 7 days) was “Cytotoxic (cytotoxic (IC50<1 μM and % inhibition ≥70%))”. The “Anti-proliferation effect % Inh.” value (22RV1; 22RV1, PROSTATE, 7 days) was 77%, the “Anti-proliferation effect Outcome” value (22RV1; 22RV1, PROSTATE, 7 days) was “Cytotoxic (cytotoxic (IC50<1 μM and % inhibition ≥70%))” and the IC50 (22RV1; Homo sapiens, 22Rv1, 168 h, read-out: Anti-proliferation effect IC50) was 28 nM. For the same molecule, the IC50 (THP1; Homo sapiens, THP-1, 168 h, read-out: Anti-proliferation effect IC50) was 42 nM, the “Anti-proliferation effect % Inh.” value (THP1; THP1, BLOOD, 7 days) was 81% and the “Anti-proliferation effect Outcome” value (THP1; THP1, BLOOD, 7 days) was “Cytotoxic (cytotoxic (IC50<1 μM and % inhibition ≥70%))”. The “Anti-proliferation effect % Inh.” value (A549; A549, LUNG, 7 days) was 64%, the “Anti-proliferation effect Outcome” value (A549; A549, LUNG, 7 days) was “Cytostatic (cytostatic (IC50<1 μM and % inhibition <70%))” and the IC50 (A549; Homo sapiens, A549, 168 h, read-out: Anti-proliferation effect IC50) was 139 nM. For the same molecule, the “Anti-proliferation effect % Inh.” value (DU145; DU145, PROSTATE, 7 days) was 74%, the “Anti-proliferation effect Outcome” value (DU145; DU145, PROSTATE, 7 days) was “Cytotoxic (cytotoxic (IC50<1 μM and % inhibition ≥70%))” and the IC50 (DU145; Homo sapiens, DU-145, 168 h, read-out: Anti-proliferation effect IC50) was 36 nM. For the same molecule, the IC50 (SAOS2; Homo sapiens, SAOS-2, 168 h, read-out: Anti-proliferation effect IC50) was 28 nM, the “Anti-proliferation effect % Inh.” value (SAOS2; SAOS2, BONE, 7 days) was 66% and the “Anti-proliferation effect Outcome” value (SAOS2; SAOS2, BONE, 7 days) was “Cytostatic (cytostatic (IC50<1 μM and % inhibition <70%))”. The “Anti-proliferation effect % Inh.” value (HS766T; HS766T, PANCREAS, 7 days) was 72%, the “Anti-proliferation effect Outcome” value (HS766T; HS766T, PANCREAS, 7 days) was “Cytotoxic (cytotoxic (IC50<1 μM and % inhibition ≥70%))” and the IC50 (HS766T; Hs766T, 168 h, read-out: Anti-proliferation effect IC50) was 62 nM.
